Results: patent publication US20240306670A1, “BERBERINE ALKALOIDS IN THE PREVENTION AND/OR TREATMENT OF INTESTINAL DISEASE” (priority 2017, published 2024)
Several values for one entry are separate records, joined by “and”; a condition that tells them apart may be missing. Equal values may be shown once. Read-outs that look alike come from different tables or passages of the source.

What was measured:
[1] = General safety in broilers reared to market weight by histology (Example 8); conditions: histology D42
[2] = test system: Eimeria species (mainly E. acervulina); conditions: in vivo
[3] = test system: Clostridium Perfringens (type A strain EHE-NE36) after Eimeria oocyst challenge; conditions: for Median Duodenal Lesion Score (0 absent to 4 severe) / Median Ilial Lesion Score (0 absent to 4 severe) / Median Jejunal Lesion Score (0 absent to 4 severe): 16 days
[4] = in vivo
[5] = NE challenge, IVP 0.1 g/L in-water, groups 7, 8
[6] = NE challenge, IVP 0.20 g/kg in-feed, group 11
[7] = NE challenge, IVP 1.0 g/L in-water, groups 9, 10
[8] = NE challenge, IVP 2.0 g/kg in-feed, group 12
[9] = Necrotic Enteritis, IVP feed 0.2 g/kg, group 11, isolator 9, 11 birds
[10] = Necrotic Enteritis, IVP feed 2 g/kg, group 12, isolator 3, 15 birds
[11] = Necrotic Enteritis, IVP water 0.1 g/L, 'Mean' line of groups 7 and 8, 28 birds
[12] = Necrotic Enteritis, IVP water 0.1 g/L, group 7, isolator 6, 13 birds
[13] = Necrotic Enteritis, IVP water 0.1 g/L, group 8, isolator 11, 15 birds
[14] = Necrotic Enteritis, IVP water 1.0 g/L, 'Mean' line of groups 9 and 10, 25 birds
[15] = Necrotic Enteritis, IVP water 1.0 g/L, group 9, isolator 2, 9 birds
[16] = Necrotic Enteritis, IVP water 1.0 g/L, group 10, isolator 8, 16 birds
[17] = Nil Challenge, IVP water 1.0 g/L, 'Mean' line of groups 3 and 4, 25 birds
[18] = Nil Challenge, IVP water 1.0 g/L, group 3, isolator 10, 10 birds
[19] = Nil Challenge, IVP water 1.0 g/L, group 4, isolator 4, 15 birds
[20] = Nil challenge, IVP 1.0 g/L in-water, groups 3, 4

## COc1ccc2cc3[n+](cc2c1OC)CCc1cc2c(cc1-3)OCO2 [IRP001 chloride, berberine chloride]
[1]
  gastrointestinal tract (GIT) histologic lesions: within normal limits
  liver histologic lesions: within normal limits
[2]
  FCR 0-14 corrected for mortality: 1.120 and 1.125 and 1.103
  FCR 0-21 corrected for mortality: 1.285 and 1.256 and 1.250
  FCR 0-28 corrected for mortality: 1.470 and 1.467 and 1.486
  Feed per bird over days 0-14: 485^B g/bird and 513^A g/bird and 512^A g/bird
  Feed per bird over days 0-21: 1186^B g/bird and 1227^AB g/bird and 1240^AB g/bird
  Feed per bird over days 0-28: 1957 g/bird and 2037 g/bird and 2049 g/bird
  Feed per bird over days 0-42: 4121 g/bird and 4247 g/bird and 4305 g/bird
  Mean Weight Gain over days 0-7: 113 gm and 121 gm and 119 gm
  Mean Weight Gain over days 8-14: 320^C gm and 334^A gm and 343^A gm
  Mean Weight Gain over days 15-21: 491^B gm and 517^A gm and 528^A gm
  Mean Weight Gain over days 22-28: 593 gm and 618 gm and 600 gm
  Mean Weight Gain over days 29-42: 1324 gm and 1341 gm and 1436 gm
  Mean live weight at 0 days: 41 gm
  Mean live weight at 7 days: 154 gm and 163 gm and 160 gm
  Mean live weight at 14 days: 432^B gm and 456^A gm and 461^A gm
  Mean live weight at 21 days: 973^C gm and 972^AB gm and 989^A gm
  Mean live weight at 28 days: 1517^B gm and 1590^A gm
  Mean live weight at 42 days: 2840^B gm and 2932^A gm and 3026^A gm
  appearance of bird health: always appeared healthy
  droppings: moist yellow-ish droppings
  early growth rate: significantly lower than all other groups
  growth rate: statistically similar to the control group
  lesion scores in duodenum, jejunum and total gut: highest lesion scores
  reduction of coccidial lesions: not by the lower dose rates
  total intestinal health scores (Tierlynck et al.): approached significance
  translucency score upper intestine and undigested feed particles in rectum: reduced translucency score in the upper intestine and the presence of undigested feed particles in the rectum
[3]; [5]
  Median Duodenal Lesion Score (0 absent to 4 severe): 4
  Median Ilial Lesion Score (0 absent to 4 severe): 4
  Median Jejunal Lesion Score (0 absent to 4 severe): 4
[3]; [6]
  Median Duodenal Lesion Score (0 absent to 4 severe): 4
  Median Ilial Lesion Score (0 absent to 4 severe): 4
  Median Jejunal Lesion Score (0 absent to 4 severe): 4
[3]; [7]
  Median Duodenal Lesion Score (0 absent to 4 severe): 1
  Median Ilial Lesion Score (0 absent to 4 severe): 1
  Median Jejunal Lesion Score (0 absent to 4 severe): 1
[3]; [8]
  Median Duodenal Lesion Score (0 absent to 4 severe): 1
  Median Ilial Lesion Score (0 absent to 4 severe): 1
  Median Jejunal Lesion Score (0 absent to 4 severe): 1
[3]; [9]
  Mortalities prior to autopsy: 9
  Mortality %: 82%
[3]; [10]
  Mortalities prior to autopsy: 2
  Mortality %: 13%
[3]; [11]
  Mortalities prior to autopsy: 22
  Mortality %: 79%
[3]; [12]
  Mortalities prior to autopsy: 12
  Mortality %: 92%
[3]; [13]
  Mortalities prior to autopsy: 10
  Mortality %: 67%
[3]; [14]
  Mortalities prior to autopsy: 0
  Mortality %: 0%
[3]; [15]
  Mortalities prior to autopsy: 0
  Mortality %: 0%
[3]; [16]
  Mortalities prior to autopsy: 0
  Mortality %: 0%
[3]; [17]
  Mortalities prior to autopsy: 0
  Mortality %: 0%
[3]; [18]
  Mortalities prior to autopsy: 0
  Mortality %: 0%
[3]; [19]
  Mortalities prior to autopsy: 0
  Mortality %: 0%
[3]; [20]
  Median Duodenal Lesion Score (0 absent to 4 severe): 0
  Median Ilial Lesion Score (0 absent to 4 severe): 0
  Median Jejunal Lesion Score (0 absent to 4 severe): 0
[4]
  Cumulative Pathology and Enteritis scores: equal or lower than the control
